Literature values as cited in patent publication US20060135507A1, “Therapeutic agent for overactive bladder involved in aging” (priority 2004, published 2006).

Assays:
[1] = test system: rat with overactive bladder caused by cerebrovascular disease
[2] = test system: human with overactive bladder caused by cerebrovascular disease

In the case of `COc1ccc(C(=O)N2CCCC2=O)cc1` [Aniracetam], the micturition reflex [1] is listed as “suppression of micturition reflex is observed” and the micturition reflex [2] is listed as “suppression of micturition reflex is observed”.
